Measured values taken from patent US20240158392A1 (Janssen Biotech, Inc., priority 2021, published 2024).
pIC50: −log10 of the molar value. Where two headings read alike, the source gives them in different places.

Biological target: SIK2 (Homo sapiens, UniProt Q9H0K1)
Test: SIK2 Enzymatic Assay High Version 2 (High ATP)
Type: biochemical
Conditions: for IC50: enzyme 6 nM, 6 mM ATP and 400 μM HDAC5tide (each 2× final concentration), 30 minutes pre-incubation, 2 hours, ADP-Glo Max luminescence, read-out: SIK2 high ATP IC50 (μM) (Test Example 2)
How it was run: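 At room temperature, enzyme (6 nM, 2× final) was preincubated with compound for 30 min, then 6 mM ATP and 400 μM HDAC5tide (both 2× final) were added for 2 h. ADP formed was measured by ADP-Glo Max (2 h reagent, 1 h detection) using luminescence.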

Chain of SIK2 (Q9H0K1 whole entry, species assumed): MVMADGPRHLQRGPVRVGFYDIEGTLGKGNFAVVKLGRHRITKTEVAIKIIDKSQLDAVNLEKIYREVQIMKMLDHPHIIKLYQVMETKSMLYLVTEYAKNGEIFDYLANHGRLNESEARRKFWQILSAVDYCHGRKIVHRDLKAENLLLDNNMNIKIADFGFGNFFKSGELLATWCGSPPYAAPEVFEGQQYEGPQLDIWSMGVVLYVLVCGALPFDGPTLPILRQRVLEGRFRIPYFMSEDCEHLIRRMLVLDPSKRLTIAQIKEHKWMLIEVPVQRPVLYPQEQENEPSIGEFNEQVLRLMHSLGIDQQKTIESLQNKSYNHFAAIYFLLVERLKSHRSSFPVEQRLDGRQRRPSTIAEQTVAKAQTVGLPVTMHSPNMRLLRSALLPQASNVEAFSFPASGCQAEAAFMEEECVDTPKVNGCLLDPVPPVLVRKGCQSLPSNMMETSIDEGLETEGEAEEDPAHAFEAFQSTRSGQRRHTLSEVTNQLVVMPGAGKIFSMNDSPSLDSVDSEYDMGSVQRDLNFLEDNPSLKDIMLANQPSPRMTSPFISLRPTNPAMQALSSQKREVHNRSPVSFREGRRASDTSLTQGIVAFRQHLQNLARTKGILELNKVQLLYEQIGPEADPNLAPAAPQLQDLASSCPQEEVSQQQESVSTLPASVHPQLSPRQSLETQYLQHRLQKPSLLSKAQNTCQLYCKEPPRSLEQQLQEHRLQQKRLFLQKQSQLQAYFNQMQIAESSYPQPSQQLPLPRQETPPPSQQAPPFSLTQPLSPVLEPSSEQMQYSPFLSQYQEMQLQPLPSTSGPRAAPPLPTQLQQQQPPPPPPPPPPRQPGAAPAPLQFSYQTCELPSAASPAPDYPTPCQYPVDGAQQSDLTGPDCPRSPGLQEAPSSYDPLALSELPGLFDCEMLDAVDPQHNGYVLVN

| SMILES | IC50 | pIC50 |
| --- | --- | --- |
| Cc1cc(-c2ccn3nc(Nc4cccc(C(F)(F)F)n4)cc3c2)c(O[C@@H]2C[C@H]3COC[C@@H](C2)N3C)cn1 [Example 406, 5-[2-methyl-5-[[(1S,5R,7s)-9-methyl-3-oxa-9-azabicyclo[3.3.1]nonan-7-yl]oxy]-4-pyridyl]-N-[6-(trifluoromethyl)-2-pyridyl]pyrazolo[1,5-a]pyridin-2-amine] | – | 8.74 |
| Cc1cc(-c2ccn3nc(NC(=O)C4CC4)c(C)c3c2)c(O[C@H]2C[C@H]3COC[C@@H](C2)N3)cn1 [Example 400, N-[3-methyl-5-[2-methyl-5-[[(1S,5R,7s)-3-oxa-9-azabicyclo[3.3.1]nonan-7-yl]oxy]-4-pyridyl]pyrazolo[1,5-a]pyridin-2-yl]cyclopropanecarboxamide] | – | 9.04 |
| Cc1cc(-c2ccn3nc(Nc4ccc(C)nn4)cc3c2)c(OC[C@]23C[C@H](CO2)N(C)C3)cn1 [Example 256, 5-[2-methyl-5-[[(1R,4R)-2-methyl-5-oxa-2-azabicyclo[2.2.1]heptan-4-yl]methoxy]-4-pyridyl]-N-(6-methylpyridazin-3-yl)pyrazolo[1,5-a]pyridin-2-amine] | 0.0198 µM | – |
| Cc1cc(-c2ccn3nc(Nc4cc(C)c(=O)n(CCOC(F)F)n4)cc3c2)c(O[C@H]2CC[C@H](O)CC2)cn1 [Example 283, 2-[2-(difluoromethoxy)ethyl]-6-[[5-[5-(4-hydroxycyclohexoxy)-2-methyl-4-pyridyl]pyrazolo[1,5-a]pyridin-2-yl]amino]-4-methyl-pyridazin-3-one] | 0.00429 µM | – |
| Cc1cc(-c2ccn3nc(Nc4cn(C)nc4F)cc3c2)c(O[C@H]2C[C@H]3COC[C@@H](C2)N3)cn1 [Example 398, N-(3-fluoro-1-methyl-pyrazol-4-yl)-5-[2-methyl-5-[[(1S,5R,7s)-3-oxa-9-azabicyclo[3.3.1]nonan-7-yl]oxy]-4-pyridyl]pyrazolo[1,5-a]pyridin-2-amine] | – | > 9.07 |
| Cc1cc(-c2ccn3nc(NC(=O)C4CC4)cc3c2)c(OC[C@@H]2CCCN2C)cn1 [Example 572, N-[5-[2-methyl-5-[[(2S)-1-methylpyrrolidin-2-yl]methoxy]-4-pyridyl]pyrazolo[1,5-a]pyridin-2-yl]cyclopropanecarboxamide] | – | 7.10 |
| Cc1cc(-c2ccn3nc(Nc4cnn(C(F)F)c4)cc3c2)c(O[C@H]2C[C@H]3COC[C@@H](C2)N3)cn1 [Example 117, 5-(5-(((1R,5S,7s)-3-oxa-9-azabicyclo[3.3.1]nonan-7-yl)oxy)-2-methylpyridin-4-yl)-N-(1-(difluoromethyl)-1H-pyrazol-4-yl)pyrazolo[1,5-a]pyridin-2-amine] | – | 9.04 |
| CC(=O)N1[C@@H]2COC[C@H]1C[C@@H](Oc1cnc(C)cc1-c1ccn3nc(Nc4cc(C)nc(C)n4)cc3c1)C2 [Example 627, 1-((1R,5S,7s)-7-((4-(2-((2,6-dimethylpyrimidin-4-yl)amino)pyrazolo[1,5-a]pyridin-5-yl)-6-methylpyridin-3-yl)oxy)-3-oxa-9-azabicyclo[3.3.1]nonan-9-yl)ethan-1-one] | – | 7.19 |
| Cc1cc(Nc2cc3cc(-c4cc(OCC(F)(F)F)ncc4O[C@H]4CC[C@H](O)CC4)ccn3n2)nc(C)n1 [Example 664, 4-[[4-[2-[(2,6-dimethylpyrimidin-4-yl)amino]pyrazolo[1,5-a]pyridin-5-yl]-6-(2,2,2-trifluoroethoxy)-3-pyridyl]oxy]cyclohexanol] | 0.0953 µM | – |
| Cc1cc(-c2ccn3nc(Nc4cc(C)nc(C)n4)cc3c2)c(O[C@H]2C[C@@H](N)C2)cn1 [Example 314, 5-[5-(3-aminocyclobutoxy)-2-methyl-4-pyridyl]-N-(2,6-dimethylpyrimidin-4-yl)pyrazolo[1,5-a]pyridin-2-amine] | 0.0129 µM | – |
| Cc1cc(-c2ccn3nc(Nc4ccncn4)cc3c2)c(O[C@H]2C[C@H]3COC[C@@H](C2)N3C)cn1 [Example 420, 5-[2-methyl-5-[[(1R,5S,7s)-9-methyl-3-oxa-9-azabicyclo[3.3.1]nonan-7-yl]oxy]-4-pyridyl]-N-pyrimidin-4-yl-pyrazolo[1,5-a]pyridin-2-amine] | – | 8.63 |
| CCNC(=O)c1ccc(Nc2cc3cc(-c4cc(C)ncc4O[C@H]4C[C@H]5COC[C@@H](C4)N5)ccn3n2)nn1 [Example 385, N-ethyl-6-[[5-[2-methyl-5-[[(1S,5R,7s)-3-oxa-9-azabicyclo[3.3.1]nonan-7-yl]oxy]-4-pyridyl]pyrazolo[1,5-a]pyridin-2-yl]amino]pyridazine-3-carboxamide] | – | 8.92 |
| Cc1cc(-c2ccn3nc(Nc4cc(C)nc(C)n4)cc3c2)c(O[C@@H]2COC(C)(C)C2)cn1 (single isomer, unassigned) [Example 533, (*S)—N-(2,6-dimethylpyrimidin-4-yl)-5-[5-(5,5-dimethyltetrahydrofuran-3-yl)oxy-2-methyl-4-pyridyl]pyrazolo[1,5-a]pyridin-2-amine] | 0.00543 µM | – |
| Cc1cc(-c2ccn3nc(Nc4cnccn4)cc3c2)c(OC[C@@H]2CN(C)CCO2)cn1 [Example 515, 5-[2-methyl-5-[[(2S)-4-methylmorpholin-2-yl]methoxy]-4-pyridyl]-N-pyrazin-2-yl-pyrazolo[1,5-a]pyridin-2-amine] | 0.000864 µM | – |
| Cc1cc(-c2ccn3nc(Nc4cncnc4)cc3c2)c(O[C@H]2C[C@H]3COC[C@@H](C2)N3C)cn1 [Example 415, 5-[2-methyl-5-[[(1S,5R,7s)-9-methyl-3-oxa-9-azabicyclo[3.3.1]nonan-7-yl]oxy]-4-pyridyl]-N-pyrimidin-5-yl-pyrazolo[1,5-a]pyridin-2-amine] | – | > 9.07 |
| COc1cc(Nc2cc3cc(-c4cc(C)ncc4O[C@H]4CC[C@H](O)CC4)ccn3n2)cc(OC(F)F)c1C(=O)NC1CC1 [Example 333, N-cyclopropyl-2-(difluoromethoxy)-4-[[5-[5-(4-hydroxycyclohexoxy)-2-methyl-4-pyridyl]pyrazolo[1,5-a]pyridin-2-yl]amino]-6-methoxy-benzamide] | 0.0448 µM | – |
| Cc1cc(-c2ccn3nc(Nc4ccc5cc[nH]c5n4)cc3c2)c(O[C@H]2CC[C@H](O)CC2)cn1 [Example 239, 4-[[6-methyl-4-[2-(1H-pyrrolo[2,3-b]pyridin-6-ylamino)pyrazolo[1,5-a]pyridin-5-yl]-3-pyridyl]oxy]cyclohexanol] | 0.00245 µM | – |
| Cc1cc(-c2ccn3nc(Nc4ccc(C(=O)O)cn4)cc3c2)c(O[C@H]2C[C@H]3COC[C@@H](C2)N3)cn1 [Example 370, 6-[[5-[2-methyl-5-[[(1S,5R,7s)-3-oxa-9-azabicyclo[3.3.1]nonan-7-yl]oxy]-4-pyridyl]pyrazolo[1,5-a]pyridin-2-yl]amino]pyridine-3-carboxylic Acid] | – | > 9.07 |

More lines, main results first:

| IC50 | SMILES | pIC50 |
| --- | --- | --- |
| 0.0234 µM | Cc1cc(-c2ccn3nc(NC(=O)C4CC4)cc3c2)c(OC[C@](C)(O)C2CC2)cn1 (single isomer, unassigned) [Example 193, (*R)—N-(5-(5-(2-cyclopropyl-2-hydroxypropoxy)-2-methylpyridin-4-yl)pyrazolo[1,5-a]pyridin-2-yl)cyclopropanecarboxamide] | – |
| < 0.000847 µM | CNc1nc(C)cc(Nc2cc3cc(-c4cc(C)ncc4OCC(C)(C)C#N)ccn3n2)n1 [Example 309, 2,2-dimethyl-3-[[6-methyl-4-[2-[[6-methyl-2-(methylamino)pyrimidin-4-yl]amino]pyrazolo[1,5-a]pyridin-5-yl]-3-pyridyl]oxy]propanenitrile] | – |
| 0.00686 µM | Cc1cc(-c2ccn3nc(Nc4cc(C)nc(C)n4)cc3c2)c(OC[C@@H](O)C2CC2)cn1 [Example 559, (1S)-1-cyclopropyl-2-[[4-[2-[(2,6-dimethylpyrimidin-4-yl)amino]pyrazolo[1,5-a]pyridin-5-yl]-6-methyl-3-pyridyl]oxy]ethanol] | – |
| 0.00234 µM | Cc1cc(-c2ccn3nc(NC(=O)C4CC4)cc3c2)c(OCC2(C#N)CNC2)cn1 [Example 221, N-[5-[5-[(3-cyanoazetidin-3-yl)methoxy]-2-methyl-4-pyridyl]pyrazolo[1,5-a]pyridin-2-yl]cyclopropanecarboxamide] | – |
| 0.00511 µM | Cc1cc(-c2ccn3nc(NC(=O)C4CC4)cc3c2)c(OCC2(c3ccccc3)CNC2)cn1 [Example 470, N-[5-[2-methyl-5-[(3-phenylazetidin-3-yl)methoxy]-4-pyridyl]pyrazolo[1,5-a]pyridin-2-yl]cyclopropanecarboxamide] | – |
| 0.00251 µM | C[C@@H](C#N)Oc1cc(-c2ccn3nc(NC(=O)C4CC4)cc3c2)c(OCC(C)(C)C#N)cn1 (single isomer, unassigned) [Example 726, (*S)—N-[5-[2-(1-cyanoethoxy)-5-(2-cyano-2-methyl-propoxy)-4-pyridyl]pyrazolo[1,5-a]pyridin-2-yl]cyclopropanecarboxamide] | – |
| 0.0032 µM | Cc1cc(-c2ccn3nc(NC(=O)C4CC4)cc3c2)c(O[C@@H]2CNC[C@@H]2F)cn1 [Example 279, N-[5-[5-[(3R,4S)-4-fluoropyrrolidin-3-yl]oxy-2-methyl-4-pyridyl]pyrazolo[1,5-a]pyridin-2-yl]cyclopropanecarboxamide] | – |
| 0.0366 µM | Cc1cc(Nc2cc3cc(-c4cc(CF)ncc4OCC(C)(C)O)ccn3n2)nc(C)n1 [Example 327, 1-[[4-[2-[(2,6-dimethylpyrimidin-4-yl)amino]pyrazolo[1,5-a]pyridin-5-yl]-6-(fluoromethyl)-3-pyridyl]oxy]-2-methyl-propan-2-ol] | – |
| 0.016 µM | Cc1cc(-c2ccn3nc(Nc4ccc5cc[nH]c5n4)cc3c2)c(OCC(C)(C)O)cn1 [Example 240, 2-methyl-1-[[6-methyl-4-[2-(1H-pyrrolo[2,3-b]pyridin-6-ylamino)pyrazolo[1,5-a]pyridin-5-yl]-3-pyridyl]oxy]propan-2-ol] | – |
| 0.0111 µM | Cn1cnc(Nc2cc3cc(-c4cc(OC(F)F)ncc4OCC(C)(C)C#N)ccn3n2)n1 [Example 699, 3-[[6-(difluoromethoxy)-4-[2-[(1-methyl-1,2,4-triazol-3-yl)amino]pyrazolo[1,5-a]pyridin-5-yl]-3-pyridyl]oxy]-2,2-dimethyl-propanenitrile] | – |
